Data published in patent US20240350441A1, “PHARMACEUTICAL FORMULATION AND A PROCESS FOR ITS PREPARATION” (SAVA HEALTHCARE LTD, priority 2021, published 2024).
Structures can show the parent of a compound that is named as a salt.

Legend:
[1] = Solubility/stability of injectable cinnamic acid 6 mg/mL in diluents (HPLC, ICH); assay type: physicochemical; conditions: zero day
Method: 6 mg of cinnamic acid was dissolved in 300 μl of 100% ethanol, sonicated for 5 min and then diluted to 1 ml with 5% PEG 400/5% DMSO/5% ethyl lactate to obtain a clear solution of cinnamic acid in the injectable form (injectable formulation). The formulation was evaluated for stability as per ICH guidelines.

[2] = test system: Cyclophosphamide induced hepatotoxicity and renal changes; experiment: Hepatic and renal parameters in cyclophosphamide induced neutropenia (Example 10); assay type: in vivo, Female Swiss Albino mice; conditions: for BUN (blood urea nitrogen) / SGOT Serum glutamic oxaloacetic transaminase / SGPT (Serum glutamic pyruvic transaminase) / Serum Creatinine / Uric acid: day 10
Method: (§1) • 1. To induce neutropenia by administration of cyclophosphamide. • 2.
(§2) Materials: Female Swiss Albino mice weighing between 25-27 g was procured from Global Bioresearch Solutions Pvt Ltd., Pune.
(§3) On day 0, blood was withdrawn from all animals for basal hematological parameters. All the groups of animals except placebo group were injected with 150 mg/kg of cyclophosphamide through intraperitoneal route (i.p.), while group 1 was injected with water for injection, i.p. On Day 3, blood was withdrawn from all animals for Total and differential count (neutrophils, lymphocytes, and monocytes). The animals of group 2 to 7 were dosed with one additional dose of 100 mg/kg cyclophosphamide on Day 4. […] The cyclophosphamide control group was injected with water for injection from day 5 to day 9. On day 10, blood was withdrawn from all animals for total and differential count (neutrophils, lymphocytes, and monocytes), platelets, liver parameters AST (aspartate aminotransferase), ALT (alanine aminotransferase), and renal parameters—serum creatinine, blood urea nitrogen and uric acid.
(§4) • Pure Picroside 1—1 tablet was dissolved in 0.1 ml of sterile water for injection and 0.1 ml was injected as subcutaneous injection. • The degraded Picroside 1 without salt (cinnamic acid of the present disclosure)—1 tablet was dissolved in 0.1 ml of sterile water for injection and 0.1 ml was injected as subcutaneous injection. • The Cinnamic acid low dose (0.6 mg/tablet) treated tablet was dissolved in 0.1 ml of sterile water for injection and 0.1 ml was injected as subcutaneous injection. • The Cinnamic acid high dose treated (6 mg/tablet) tablet was dissolved in 0.1 ml of sterile water for injection and 0.1 ml was injected as subcutaneous injection.

[3] = test system: Cyclophosphamide induced neutropenia; experiment: Cyclophosphamide induced neutropenia, hematological parameters (Example 10); assay type: in vivo, Female Swiss Albino mice; conditions: for Anti-neutropenic activity (words): inference from table 8A
Method: as §1, §2, §3, §4

neutropenia = experiment: Efficacy dose for anti-neutropenic activity and human equivalent dose; assay type: in vivo, mice
Method: The animal efficacy dose of the cinnamic acid prepared in accordance with the present disclosure was 0.6 mg/mice or 0.6 mg/25 g or 6 mg/250 g or 24 mg/kg mice.
The human dose of the cinnamic acid prepared in accordance with the present disclosure, AED (animal equivalent dose) was divided by 12.3=24/12.3=1.95 mg/kg HED (human equivalent dose).
The animal efficacy dose of the cinnamic acid prepared in accordance with the present disclosure was 6 mg/25 g or 60 mg/250 g mice or 240 mg cinnamic acid/kg.
The human dose of the cinnamic acid prepared in accordance with the present disclosure, AED (animal equivalent dose) was divided by 12.3=240/12.3=19.51 mg/kg HED (human equivalent dose).

[4] = 0.6 mg/tablet low dose, 1 tablet per animal per day for 5 days
[5] = 6 mg/tablet high dose, 1 tablet per animal per day for 5 days
[6] = vs CP control, cinnamic acid at both 0.6 mg/tablet low dose and 6 mg/tablet high dose
[7] = Day 0, basal, 0.6 mg/tablet low dose
[8] = Day 0, basal, 6 mg/tablet high dose
[9] = Day 3, after cyclophosphamide, before treatment, 0.6 mg/tablet low dose
[10] = Day 3, after cyclophosphamide, before treatment, 6 mg/tablet high dose
[11] = Day 10, treated day 5 for 5 days, 0.6 mg/tablet low dose, 1 tablet per animal per day
[12] = Day 10, treated day 5 for 5 days, 6 mg/tablet high dose, 1 tablet per animal per day
[13] = vs CP control, day 10, cinnamic acid at both 0.6 mg/tablet low dose and 6 mg/tablet high dose
[14] = G-CSF 2 μg s.c., others 1 tablet per animal per day for 5 days
[15] = Day 0, basal, G-CSF 2 μg, Picroside tablets groups
[16] = Day 3, after cyclophosphamide, before treatment, G-CSF 2 μg, Picroside tablets groups
[17] = Day 10, treated day 5 for 5 days, G-CSF 2 μg s.c., others 1 tablet per animal per day

Compound `O=C(O)C=Cc1ccccc1` [The commercial synthetic Cinnamic acid, 3-Phenyl-2-propenoic acid] has an HPLC area ([1]; 30% Ethanol with 3.5% PEG400) of 3128043, an HPLC area ([1]; 30% Ethanol with 5% DMSO) of 3276296 and an HPLC area ([1]; 30% Ethanol with 5% Ethyl lactate) of 3175284. The HPLC area ([1]; 100% Methanol) was 3379040, the “BUN (blood urea nitrogen)” value [2, 4] was 9.533 mmol/L and the “SGOT Serum glutamic oxaloacetic transaminase” value [2, 4] was 33.67 IU/L. For the same compound, the “SGPT (Serum glutamic pyruvic transaminase)” value [2, 4] was 36.5 IU/L, the Serum Creatinine [2, 4] was 38.5 µM and the Uric acid [2, 4] was 16.82 mg/L. For the same compound, the “BUN (blood urea nitrogen)” value [2, 5] was 9.383 mmol/L, the “SGOT Serum glutamic oxaloacetic transaminase” value [2, 5] was 29.33 IU/L and the “SGPT (Serum glutamic pyruvic transaminase)” value [2, 5] was 32.17 IU/L. For the same compound, the Serum Creatinine [2, 5] was 37.5 µM, the Uric acid [2, 5] was 16.66 mg/L and the “Effect on BUN level” value [2, 6] was “significant (p<0.001) decrease in BUN level”. For the same compound, the “Effect on SGOT level” value [2, 6] was “significant (p<0.001) decrease in SGOT”, the “Effect on SGPT level” value [2, 6] was “significant reversal (p<0.001)” and the “Effect on serum creatinine level” value [2, 6] was “significant (p<0.001) decrease in creatinine level”. The “Effect on uric acid level” value [2, 6] was “significant reversal (p<0.001) of uric acid level”, the “% Lymphocytes” value [3, 7] was 45.17% and the “% Monocytes” value [3, 7] was 6.66%. For the same compound, the “% Neutrophils” value [3, 7] was 40.33%, the “No of Platelets” value [3, 7] was 736600 per cu · mm of blood and the “Total WBC Count” value [3, 7] was 7465 per cu · mm of blood. The “% Lymphocytes” value [3, 8] was 46.83%, the “% Monocytes” value [3, 8] was 6.82% and the “% Neutrophils” value [3, 8] was 40.17%. The “No of Platelets” value [3, 8] was 772500 per cu · mm of blood, the “Total WBC Count” value [3, 8] was 7237 per cu · mm of blood and the “% Lymphocytes” value [3, 9] was 83.67%. For the same compound, the “% Monocytes” value [3, 9] was 1.82%, the “% Neutrophils” value [3, 9] was 6.50% and the “No of Platelets” value [3, 9] was 630500 per cu · mm of blood. The “Total WBC Count” value [3, 9] was 2289 per cu · mm of blood, the “% Lymphocytes” value [3, 10] was 84% and the “% Monocytes” value [3, 10] was 1.66%. For the same compound, the “% Neutrophils” value [3, 10] was 6.333%, the “No of Platelets” value [3, 10] was 637000 per cu · mm of blood and the “Total WBC Count” value [3, 10] was 2306 per cu · mm of blood. For the same compound, the “% Lymphocytes” value [3, 11] was 61%, the “% Monocytes” value [3, 11] was 5.82% and the “% Neutrophils” value [3, 11] was 27.67%. For the same compound, the “No of Platelets” value [3, 11] was 641400 per cu · mm of blood, the “Total WBC Count” value [3, 11] was 4460 per cu · mm of blood and the “% Lymphocytes” value [3, 12] was 53%. For the same compound, the “% Monocytes” value [3, 12] was 5.82%, the “% Neutrophils” value [3, 12] was 33.17% and the “No of Platelets” value [3, 12] was 660300 per cu · mm of blood. For the same compound, the “Total WBC Count” value [3, 12] was 5389 per cu · mm of blood, the “Anti-neutropenic activity (words)” value ([3]; listed as The commercial synthetic cinnamic acid) was “active to address neutropenia” and the “Effect on % lymphocytes” value [3, 13] was “significant (p<0.001) decrease in % lymphocytes”. The “Effect on % monocytes” value [3, 13] was “significantly (p<0.001) reversed”, the “Effect on % neutrophil” value [3, 13] was “significantly (p<0.001) alleviated the cyclophosphamide-induced neutropenia” and the “Effect on platelet count” value [3, 13] was “did not cause significant change in the platelet count”. The “Effect on total WBC count” value [3, 13] was “significantly (p<0.001) reversed the cyclophosphamide induced decrease in WBC count”.
For `O=C(O)C=Cc1ccccc1` [The degraded Picroside 1 without salt, cinnamic acid], the “BUN (blood urea nitrogen)” value [2, 14] was 9.467 mmol/L, the “SGOT Serum glutamic oxaloacetic transaminase” value [2, 14] was 27.5 IU/L and the “SGPT (Serum glutamic pyruvic transaminase)” value [2, 14] was 30.33 IU/L. The Serum Creatinine [2, 14] was 41 µM, the Uric acid [2, 14] was 21.50 mg/L and the “Hepatic and renal parameters in neutropenic animal model” value ([2]; inference from table 8B, as compared to GCSF) was “improved hepatic and renal parameters”. The “animal efficacy dose for anti-neutropenic activity” value (neutropenia; from 0.6 mg/mice (0.6 mg/25 g)) was 24 mg/kg, the animal efficacy dose (neutropenia; from 6 mg/25 g mice) was 240 mg cinnamic acid/kg and the “% Lymphocytes” value [3, 15] was 46.5%. The “% Monocytes” value [3, 15] was 6.50%, the “% Neutrophils” value [3, 15] was 38.83% and the “No of Platelets” value [3, 15] was 759400 per cu · mm of blood. For the same compound, the “Total WBC Count” value [3, 15] was 7644 per cu · mm of blood, the “% Lymphocytes” value [3, 16] was 83.5% and the “% Monocytes” value [3, 16] was 1.82%. For the same compound, the “% Neutrophils” value [3, 16] was 6.667%, the “No of Platelets” value [3, 16] was 624000 per cu · mm of blood and the “Total WBC Count” value [3, 16] was 2253 per cu · mm of blood. For the same compound, the “% Lymphocytes” value [3, 17] was 58.83%, the “% Monocytes” value [3, 17] was 5.50% and the “% Neutrophils” value [3, 17] was 25.17%. For the same compound, the “No of Platelets” value [3, 17] was 631900 per cu · mm of blood, the “Total WBC Count” value [3, 17] was 3705 per cu · mm of blood and the “Anti-neutropenic activity (words)” value ([3]; listed as the degraded Picroside 1 without salt) was “shows better anti-neutropenic activity”.
